system: Human colon cancer cell line HRT18; assay: MTT cytotoxicity / cell proliferation assay in HRT18 colon tumour cell line; format: cell-based; details: HRT-18, HRT18 cells, 72 h incubation, 0.128-2000 nM, read-out: EC50 (nM) Colorectal cell HRT18
Excerpt: The compounds can be assayed by many in vitro or in vivo methods, but in the first instance a cell proliferation assay is rapid and informative. Many tumour cell lines can be used for the assay, we herein report typical data for target compounds in HRT18 colon tumour cell line, using standard MTT assay methods, typical in many laboratories.
Human colon cancer cell line HRT18 were purchased from the European Collection of Animal Cell Cultures (ECACC, Salisbury, England). Cytoxicity assay was based on MTT assay as we previously reported. The method is based on the ability of viable mitochondria to convert MTT, a soluble tetrazolium salt (3-[4,5-dimethylthiazd-2-yl]-2,5-diphenyltetrazolium bromide) into an insoluble formazan precipitate that is dissolved and quantified by spectrophotometry. A 96-well culture cell culture plate was used. Cells were counted with a haemocytomete counting chamber and a specific number (4000 per well) of cells were seeded to each well with culture medium (DMEM). Compounds, dissolved in DMSO, were series diluted (1:5) in culture medium, to cover a final concentration range between 0.128 and 2000 nM. The culture plate was incubated for 72 h at 37° C. The cells were washed twice with BSS. A solution of MTT in 0.5 mg/mL in culture medium was added into each well. The culture plate was then incubated at 37° C. for 4 h. MTT was then removed by aspiration. The crystals produced by MTT reagent within the cells were then extracted by the addition of 100 µL of Triton X100 (10% in water). The cells were incubated at 4° C. for 24 h. The absorbance of the colorimetric products was then measured at a wavelength of 540 nm using a spectrophotometer (Titertecek).

**Q.** Which EC50 does the source give for `C[C@H](NP(=O)(N[C@@H](C)C(=O)OCc1ccccc1)OC[C@H]1O[C@@H](n2ccc(N)nc2=O)C(F)(F)C1O)C(=O)OCc1ccccc1` (stereo partly drawn) [CPF457, 2′-Deoxy-2′,2′-difluoro-D-cytidine-5′-O-bis(benzoxy-L-alaninyl)] phosphate] here?
**A.** Its EC50 is 14 nM.

**Q.** `C[C@H](NP(=O)(N[C@@H](C)C(=O)OC1CCCCC1)OC[C@H]1O[C@@H](n2ccc(N)nc2=O)C(F)(F)C1O)C(=O)OC1CCCCC1` (stereo partly drawn) [CPF458] was tested. Which EC50 did it give?
**A.** Its EC50 is 31 nM.

**Q.** How did the EC50 turn out when `CCOC(=O)[C@H](C)NP(=O)(N[C@@H](C)C(=O)OCC)OC[C@H]1O[C@@H](n2ccc(N)nc2=O)C(F)(F)C1O` (stereo partly drawn) [CPF459, 2′-Deoxy-2′,2′-difluoro-D-cytidine-5′-O-bis(ethoxy-L-alaninyl)phosphate] was run?
**A.** Its EC50 is 42 nM.

**Q.** With `C[C@H](NP(=O)(N[C@@H](C)C(=O)OCC(C)(C)C)OC[C@H]1O[C@@H](n2ccc(N)nc2=O)C(F)(F)C1O)C(=O)OCC(C)(C)C` (stereo partly drawn) [CPF460] as the compound, how does the EC50 read?
**A.** Its EC50 is 1.6 nM.

**Q.** How did the EC50 turn out when `CC(C)OC(=O)[C@H](C)NP(=O)(N[C@@H](C)C(=O)OC(C)C)OC[C@H]1O[C@@H](n2ccc(N)nc2=O)C(F)(F)C1O` (stereo partly drawn) [CPF461] was run?
**A.** The EC50 was 3.2 nM.

**Q.** Which EC50 does the source give for `Nc1ccn([C@@H]2O[C@H](CO)[C@@H](O)C2(F)F)c(=O)n1` [Gemcitabine, gemcitabine] here?
**A.** The EC50 was 64 nM.
